# Columns and labels:
# [1] = Intravenous drug self-administration; assay type: in vivo, rats; settings: for self-administration responding: i.v., FR10, cocaine 1 mg/kg/infusion, analog 2 0.3-3 mg/kg/infusion, analog 3 0.125-0.5 mg/kg infusion, vs saline extinction
# Text: J. Neurosci., 16, 7416-7427.
# Rats were initially trained to lever press for food pellets in standard operant boxes. Following lever press training, rats were implanted with polyvinyl chloride catheters into femoral veins under halothane anesthesia (2-3% in medical grade oxygen) and were allowed to recover for an additional 7 days before initiation of i.v. drug self-administration testing. During drug self-administration sessions, food pellets were no longer delivered, and instead intravenous injections of drugs were delivered by way of the catheter.
# Following this second extinction test, self-administration of piperidine analog 2 was studied at doses of 1, 3, and 0.3 mg/kg/infusion in that order. Each dose was tested for five days. During all the re-acquisition test days, a priming infusion was given at the start of the session on each day.
# [2] = Drug discrimination, amphetamine substitution tests; assay type: in vivo, rats; settings: for response rates: across all test doses
# Locomotor activity = assay type: in vivo, Sprague-Dawley rats
# Experimental: The locomotor effects of compound 2 were evaluated using male Swiss Webster mice according to previously published procedures: Izenwasser, S., Terry, P., Heller, B., Witkin, J. M., and Katz, J. L. (1994) Differential relationships among dopamine transporter affinities and stimulant potencies of various uptake inhibitors. Eur. J. Pharmacol., 263, 277-283.
# Thus the small behavioral responses to the piperidine analog appear to last longer than that of cocaine.
# [3] = Drug discrimination, cocaine substitution and co-administration tests; assay type: in vivo, rats
# dopamine transporter [4] = molecular target: T1, dopamine transporter (Rattus norvegicus, UniProt P23977); experiment: biochemical; settings: IC50 (nM) [3H]WIN 35,428 binding, rat striatal membranes
# dopamine transporter [5] = molecular target: T1, dopamine transporter; experiment: biochemical; settings: IC50 (nM) [3H]dopamine uptake, rat striatal synaptosomes
# dopamine transporter [6] = molecular target: T1, dopamine transporter; settings: relative to cocaine
# dopamine transporter [7] = molecular target: T1, dopamine transporter; settings: relative to cocaine; remark: listed apart in the source
# [8] = test system: striatal dopamine transporter; experiment: PET evaluation of 11C-labeled isomers; settings: for specific binding to striatal dopamine transporter sites: in vivo PET
# Experimental: The products were purified by HPLC on a C-18 cartridge eluted with MeOH:phosphate/triethylamine buffer, pH 7.2 (60:40).
# After passage through a 0.22 μm filter, the sterile products were administered to three Rhesus monkeys and dynamic PET images were acquired over 90 minutes.
# T1 sequence (P23977 whole entry): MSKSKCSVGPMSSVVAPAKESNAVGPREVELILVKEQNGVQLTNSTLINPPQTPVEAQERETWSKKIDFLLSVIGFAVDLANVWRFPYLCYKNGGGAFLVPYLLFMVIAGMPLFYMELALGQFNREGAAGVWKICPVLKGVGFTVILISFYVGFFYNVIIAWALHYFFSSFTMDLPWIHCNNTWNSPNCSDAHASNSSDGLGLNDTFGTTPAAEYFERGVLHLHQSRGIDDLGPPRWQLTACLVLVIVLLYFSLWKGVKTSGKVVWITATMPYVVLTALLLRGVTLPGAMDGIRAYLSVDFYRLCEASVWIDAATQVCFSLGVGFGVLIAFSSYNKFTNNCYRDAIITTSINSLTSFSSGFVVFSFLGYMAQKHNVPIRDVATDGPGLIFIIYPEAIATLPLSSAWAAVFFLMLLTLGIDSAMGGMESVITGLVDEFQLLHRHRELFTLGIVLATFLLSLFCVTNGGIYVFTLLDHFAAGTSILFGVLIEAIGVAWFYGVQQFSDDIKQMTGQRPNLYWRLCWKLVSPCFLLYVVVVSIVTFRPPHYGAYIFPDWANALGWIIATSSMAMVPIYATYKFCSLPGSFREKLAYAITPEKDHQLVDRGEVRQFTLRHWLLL
smiles,measurement,setting,value
"COC(=O)C1CN(C)CCC1c1ccc(Cl)cc1 (racemic) [(±)-2, (±)-cis-Methyl 4-(4-Chlorophenyl)-1-methylpiperidine-3-carboxylate]",number of infusions delivered,"[1]; analog 2, all doses tested (0.3-3 mg/kg/infusion), vs saline extinction test",not significantly different from that of the saline extinction test
same,self-administration responding,[1],failed to restore the self-administration responding
same,response rates,[2],remained fairly stable
same,time-course of stereotypic response,Locomotor activity; 90 minutes following the drug injection,persistent at 90 minutes
same,convulsions,Locomotor activity; doses higher than 20 mg/kg i.p.,produce convulsions
same,distance traveled,"Locomotor activity; i.p., cocaine 10 mg/kg, analog 2 3-20 mg/kg, compared to saline control",did not alter the distance traveled
same,stereotypic behavior / stereotypic time,"Locomotor activity; i.p., cocaine 10 mg/kg, analog 2 10 and 20 mg/kg, compared to saline control","small, statistically nonsignificant increase in stereotypic time"
same,effect of co-administration on drug choice and response rate of cocaine,[3]; analog 2 10 mg/kg plus cocaine 1.25 and 5 mg/kg,did not significantly alter drug choice
same,response rates compared with cocaine (10 mg/kg),[3]; analog 2 5 and 10 mg/kg,substantially lower
same,maximum cocaine-lever responding,[3]; analog 2 5 and 20 mg/kg,40%
"COC(=O)[C@@H]1CN(C)CC[C@@H]1c1ccc(Cl)cc1 (racemic) [Compound (±)-1, (±)-cis-Methyl 4-(4-Chlorophenyl)-1-methylpiperidine-3-carboxylate]",melting point,,98 to 99 °C
"COC(=O)C1CN(C)CCC1c1ccc(Cl)cc1 (single isomer, unassigned; (+)) [(+)-11, (+)-Methyl 4β-(4-chlorophenyl)-1-methylpiperidine-3α-carboxylate]",IC50,dopamine transporter [4],57.3 ± 8.1 nM
same,IC50,dopamine transporter [5],34.6 ± 3.2 nM
"CCCC1CN(C)CCC1c1ccc(Cl)cc1 (single isomer, unassigned; (+)) [(+)-15, (+) 4β-(4-chlorophenyl)-1-methyl-3α-n-propylpiperidine]",IC50,dopamine transporter [4],17.2 ± 0.5 nM
same,IC50,dopamine transporter [5],23.2 ± 2.2 nM
"COC(=O)C1CN(C)CCC1c1ccc(Cl)cc1 (single isomer, unassigned; (-)) [(−)-3, (−)-Methyl 4β-(4-chlorophenyl)-1-methylpiperidine-3β-carboxylate]",IC50,dopamine transporter [4],24.8 ± 1.6 nM
same,self-administration responding,[1],rats reliably self-administered this compound
same,IC50,dopamine transporter [5],85.2 ± 2.6 nM
"CN1CCC(c2ccc(Cl)cc2)C(CO)C1 (single isomer, unassigned; (-)) [(−)-5, (−)-4β-(4-Chlorophenyl)-3β-(hydroxymethyl)-1-methylpiperidine]",IC50,dopamine transporter [5],49 ± 3 nM
"CC(=O)OCC1CN(C)CCC1c1ccc(Cl)cc1 (single isomer, unassigned; (-)) [(−)-7, (−)-3β-(Acetoxymnethyl)-4β-(4-chlorophenyl)-1-methylpiperidine]",melting point,,76 °C
same,IC50,dopamine transporter [4],44.7 ± 10.5 nM
same,IC50,dopamine transporter [5],62.9 ± 2.7 nM
"CCCC1CN(C)CCC1c1ccc(Cl)cc1 (single isomer, unassigned; (-)) [(−)-9, (−) 4β-(4-chlorophenyl)-1-methyl-3β-n-propylpiperidine]",IC50,dopamine transporter [4],3 nM
same,fold more potent than cocaine in binding affinity,dopamine transporter [6],33 fold
same,IC50,dopamine transporter [5],8.3 ± 0.6 nM
same,fold more potent than cocaine in inhibition of dopamine uptake,dopamine transporter [7],29 fold
"COC(=O)C1CN(C)CCC1c1ccc(Cl)cc1 (single isomer, unassigned; isomer 4) [cis isomer, 4-(4-chlorophenyl)-3-carbomethoxy-N-methylpiperidine]",accumulation in brain regions (dynamic PET),"[8]; 11C-labeled, PET images over 90 minutes",greater nonspecific accumulation in the cortex
same,specific binding to striatal dopamine transporter sites,[8],high levels of specific binding
"COC(=O)C1CN(C)CCC1c1ccc(Cl)cc1 (single isomer, unassigned; isomer 4) [trans isomer, 4-(4-chlorophenyl)-3-carbomethoxy-N-methylpiperidine]",specific binding to striatal dopamine transporter sites,[8],high levels of specific binding
same,striatal activity after unlabeled CFT,[8]; unlabeled CFT administered 60 minutes after injection,selective decrease in the striatal activity
CC(N)Cc1ccccc1 (centres unmarked) [amphetamine],response rates,[2],remained fairly stable
same,substitution for the discriminative stimulus effects of amphetamine,[2]; substitution tests,dose-dependent and complete substitution
